In patent US11723890B2, “Methods of treatment using an mTORC1 modulator” (Navitor Pharmaceuticals, Inc., priority 2019, dated 2023):
Like-named read-outs stand apart in the source and are kept apart here.

Legend:
[1] = tested on: rodent models of stress-induced depressive behavior; assay: Preclinical rodent models of stress-induced depressive behavior; assay type: in vivo; conditions: head-to-head with ketamine
Source text: Compound A [(S)-2-amino-5,5-difluoro-4,4-dimethylpentanoic acid] is a novel, orally bioavailable, specific, small molecule that activates mTORC1 pathway signaling in the brain, including those centers responsible for mood.

[2] = 14-day Q3D oral toxicology study in rats; assay type: in vivo, rat; conditions: rat, in vivo
Protocol: (§1) In rats administered 160, 500, or 1000 mg/kg PO every 3 days (Q3D) for 14 days (5 doses total), the no-observed-adverse-effect level (NOAEL) was 160 mg/kg.
(§2) Factors Influencing Starting and Stopping Dose for compound A: The proposed starting dose of compound A (150 mg) was based on considering the NOAEL dose of compound A in the most sensitive species (160 mg/kg dosed Q3D for 14 days in rat), determining the human equivalent dose (HED) based on the body surface area difference between the two species (˜26 mg/kg, or ˜1560 mg for a 60 kg human), followed by applying a safety factor of 10 to yield the maximum recommended starting dose (MRSD). Based on the above considerations, the starting dose of compound A in the present study was 150 mg. Based on an integrated assessment of nonclinical findings with compound A, the planned maximum dose for compound A in the first-time-in-humans (FTIH) study was 2400 mg. Extrapolated on the basis of body surface area, the 2400 mg dose is equivalent to 247 mg/kg in rats and 123 mg/kg in monkeys. […] At 160 mg/kg in monkeys, the only effect was a slight decrease in heart rate (approximately 18%, or approximately 30 beats per minute, compared with vehicle).
(§3) In addition, the present clinical study included frequent clinical laboratory tests.

rat = assay: 14-day Q3D oral toxicology study in rats; assay type: in vivo
Protocol: as §1, §2, §3

[3] = Example 3: plasma pharmacokinetics of two sequential doses; assay type: in vivo, human; conditions: for Tmax / AUC / AUC(0-t) / Cmax / half-life: male, human, 2400 mg
Protocol: Up to approximately 24 healthy male volunteers were randomly assigned (1:1) to double-blind treatment with either compound A 2400 mg or placebo. Each subject received one dose of either 2400 mg compound A or placebo on Day 1 and a second dose of the same treatment on Day 3.
The initial dose of double-blind treatment was administered between 7:00 AM and 10:00 AM on Day 1. The second (Day 3) dose was given 48 hours ±30 minutes following the first (Day 1) dose. Predose assessments were performed up to 120 minutes prior to dosing on Day 1 and Day 3, except for the predose dECG, which was performed within 30 minutes prior to dosing on both Day 1 and Day 3, the predose qEEG and ERP, which was performed within 60 minutes prior to dosing on Day 1 and Day 3, and the predose PK blood draw, which was performed within 15 minutes prior to dosing on Day 3.
Pharmacodynamics were assessed via qEEG and event-related potential (ERP). Frequent PK sampling was included in the study to evaluate the PK of two doses of compound A given approximately 48 hours apart. A PK/PD model was developed that measures qEEG and ERP changes as a function of plasma concentration of compound A as well as determines whether there are any PK/PD differences between Dose 1 and Dose 2 effects.
Subjects were required to refrain from eating or drinking from 2 hours prior to dose administration until two hours after dose administration.

[4] = healthy males, 2400 mg oral, Day 1, N 11
[5] = healthy males, 2400 mg oral, second dose, Day 3, N 11

Question: Which “adverse effects in rodent models” value [1] does the source give for `CC(C)(C[C@H](N)C(=O)O)C(F)F` [Compound A, (S)-2-amino-5,5-difluoro-4,4-dimethylpentanoic acid] here?
Answer: without producing significant adverse effects

Question: What about the antidepressant effects [1] of the same compound?
Answer: rapid antidepressant effects comparable to those of ketamine

Question: What about the human equivalent dose of rat NOAEL at 14 days ([2]; oral, 160 mg/kg, based on body surface area difference, read-out: human equivalent dose (HED) of rat NOAEL) of the same compound?
Answer: ~26 mg/kg

Question: What about the NOAEL at 14 days ([2]; rats, 160, 500 or 1000 mg/kg PO Q3D for 14 days (5 doses), read-out: no-observed-adverse-effect level (NOAEL)) of the same compound?
Answer: 160 mg/kg

Question: What about the “human equivalent dose (HED) of rat NOAEL for a 60 kg human” value (rat; based on body surface area difference, 60 kg human) of the same compound?
Answer: ~1560 mg

Question: And the “other findings, not considered adverse” value (rat; rat, in vivo, po)?
Answer: slightly decreased lymphocyte, monocyte, and neutrophil counts

Question: What about the “findings at high doses” value (rat; rat, in vivo, po, 500 mg/kg) of the same compound?
Answer: lymphoid atrophy and decreased leucocyte counts

Question: What about the “adverse effects at 1000 mg/kg” value (rat; rat, in vivo, po, 1000 mg/kg) of the same compound?
Answer: regenerative anemia in one male, considered likely an episode of gastrointestinal (GI) bleeding, and hepatocellular injury in one male

Question: And the “accumulation between Day 1 and Day 3” value ([3]; 2400 mg oral 48 hours apart)?
Answer: negligible accumulation

Question: What about the “difference in geometric mean exposure (Cmax, AUC(0-24), AUC(0-48)) between Day 1 and Day 3” value ([3]; 2400 mg oral on Days 1 and 3) of the same compound?
Answer: ≤ 5%

Question: And the “time of peak concentration for the mean profile” value ([3]; 2400 mg oral, day 1, post-dose)?
Answer: 1 h

Question: And the “time of highest concentration for the mean profile” value ([3]; 2400 mg oral, day 3, post-dose)?
Answer: 0.5 h

Question: And the “mean plasma concentration versus time profiles on days 1 and 3” value ([3]; FIG. 13)?
Answer: nearly superimposable

Question: What about the “AUC(0-24), Max” value [3, 4] of the same compound?
Answer: 416,000 h*ng/mL

Question: What about the “AUC(0-24), Min” value [3, 4] of the same compound?
Answer: 298,000 h*ng/mL

Question: What about the “AUC(0-48), Max” value [3, 4] of the same compound?
Answer: 525,000 h*ng/mL

Question: And the “AUC(0-48), Min” value [3, 4]?
Answer: 357,000 h*ng/mL

Question: What about the “AUClast, Max” value [3, 4] of the same compound?
Answer: 481,000 h*ng/mL

Question: What about the “AUClast, Min” value [3, 4] of the same compound?
Answer: 298,000 h*ng/mL

Question: What about the “Cmax, Max” value [3, 4] of the same compound?
Answer: 57,700 ng/mL

Question: What about the “Cmax, Min” value [3, 4] of the same compound?
Answer: 23,300 ng/mL

Question: And the “T1/2, Max” value [3, 4]?
Answer: 15.2 h

Question: And the “T1/2, Min” value [3, 4]?
Answer: 9.20 h

Question: What about the “AUC(0-24), Max” value [3, 5] of the same compound?
Answer: 449,000 h*ng/mL

Question: And the “AUC(0-24), Min” value [3, 5]?
Answer: 294,000 h*ng/mL

Question: And the “AUC(0-48), Max” value [3, 5]?
Answer: 584,000 h*ng/mL

Question: What about the “AUC(0-48), Min” value [3, 5] of the same compound?
Answer: 353,000 h*ng/mL

Question: And the “AUClast, Max” value [3, 5]?
Answer: 632,000 h*ng/mL

Question: What about the “AUClast, Min” value [3, 5] of the same compound?
Answer: 369,000 h*ng/mL

Question: What about the “Cmax, Max” value [3, 5] of the same compound?
Answer: 52,300 ng/mL

Question: And the “Cmax, Min” value [3, 5]?
Answer: 35,700 ng/mL

Question: What about the “T1/2, Max” value [3, 5] of the same compound?
Answer: 21.1 h

Question: What about the “T1/2, Min” value [3, 5] of the same compound?
Answer: 10.9 h

Question: What about the Tmax ([3]; oral, all subjects, both dosing days (Days 1 and 3), read-out: individual Tmax values) of the same compound?
Answer: 0.5 to 1 h

Question: What about the AUC ([3]; po, healthy males, 2400 mg oral, Day 1, N 11, read-out: AUC(0-24), Geometric mean) of the same compound?
Answer: 355 µg·h/mL

Question: And the AUC ([3]; po, healthy males, 2400 mg oral, Day 1, N 11, read-out: AUC(0-24), Mean)?
Answer: 358 µg·h/mL

Question: And the AUC ([3]; po, healthy males, 2400 mg oral, Day 1, N 11, read-out: AUC(0-24), Median)?
Answer: 366 µg·h/mL

Question: And the AUC ([3]; po, healthy males, 2400 mg oral, Day 1, N 11, read-out: AUC(0-48), Geometric mean)?
Answer: 438 µg·h/mL

Question: What about the AUC ([3]; po, healthy males, 2400 mg oral, Day 1, N 11, read-out: AUC(0-48), Mean) of the same compound?
Answer: 442 µg·h/mL

Question: What about the AUC ([3]; po, healthy males, 2400 mg oral, Day 1, N 11, read-out: AUC(0-48), Median) of the same compound?
Answer: 453 µg·h/mL

Question: And the AUC(0-t) ([3]; po, healthy males, 2400 mg oral, Day 1, N 11, read-out: AUClast, Geometric mean)?
Answer: 405 µg·h/mL

Question: And the AUC(0-t) ([3]; po, healthy males, 2400 mg oral, Day 1, N 11, read-out: AUClast, Mean)?
Answer: 409 µg·h/mL

Question: And the AUC(0-t) ([3]; po, healthy males, 2400 mg oral, Day 1, N 11, read-out: AUClast, Median)?
Answer: 422 µg·h/mL

Question: And the Cmax ([3]; po, healthy males, 2400 mg oral, Day 1, N 11, read-out: Cmax, Geometric mean)?
Answer: 43900 ng/mL

Question: And the Cmax ([3]; po, healthy males, 2400 mg oral, Day 1, N 11, read-out: Cmax, Mean)?
Answer: 45100 ng/mL

Question: What about the Cmax ([3]; po, healthy males, 2400 mg oral, Day 1, N 11, read-out: Cmax, Median) of the same compound?
Answer: 47000 ng/mL

Question: What about the half-life ([3]; po, healthy males, 2400 mg oral, Day 1, N 11, read-out: T1/2, Geometric mean (converted)) of the same compound?
Answer: 12.1 h

Question: What about the half-life ([3]; po, healthy males, 2400 mg oral, Day 1, N 11, read-out: T1/2, Mean (converted)) of the same compound?
Answer: 12.2 h

Question: And the half-life ([3]; po, healthy males, 2400 mg oral, Day 1, N 11, read-out: T1/2, Median (converted))?
Answer: 12 h

Question: What about the Tmax ([3]; po, healthy males, 2400 mg oral, Day 1, N 11, read-out: Tmax, Median) of the same compound?
Answer: 1 h

Question: And the AUC ([3]; po, healthy males, 2400 mg oral, second dose, Day 3, N 11, read-out: AUC(0-24), Geometric mean)?
Answer: 350 µg·h/mL

Question: And the AUC ([3]; po, healthy males, 2400 mg oral, second dose, Day 3, N 11, read-out: AUC(0-24), Mean)?
Answer: 353 µg·h/mL

Question: And the AUC ([3]; po, healthy males, 2400 mg oral, second dose, Day 3, N 11, read-out: AUC(0-24), Median)?
Answer: 340 µg·h/mL

Question: What about the AUC ([3]; po, healthy males, 2400 mg oral, second dose, Day 3, N 11, read-out: AUC(0-48), Geometric mean) of the same compound?
Answer: 430 µg·h/mL

Question: What about the AUC ([3]; po, healthy males, 2400 mg oral, second dose, Day 3, N 11, read-out: AUC(0-48), Mean) of the same compound?
Answer: 436 µg·h/mL

Question: What about the AUC ([3]; po, healthy males, 2400 mg oral, second dose, Day 3, N 11, read-out: AUC(0-48), Median) of the same compound?
Answer: 428 µg·h/mL

Question: And the AUC(0-t) ([3]; po, healthy males, 2400 mg oral, second dose, Day 3, N 11, read-out: AUClast, Geometric mean)?
Answer: 455 µg·h/mL

Question: What about the AUC(0-t) ([3]; po, healthy males, 2400 mg oral, second dose, Day 3, N 11, read-out: AUClast, Mean) of the same compound?
Answer: 462 µg·h/mL

Question: And the AUC(0-t) ([3]; po, healthy males, 2400 mg oral, second dose, Day 3, N 11, read-out: AUClast, Median)?
Answer: 460 µg·h/mL

Question: What about the Cmax ([3]; po, healthy males, 2400 mg oral, second dose, Day 3, N 11, read-out: Cmax, Geometric mean) of the same compound?
Answer: 45300 ng/mL

Question: What about the Cmax ([3]; po, healthy males, 2400 mg oral, second dose, Day 3, N 11, read-out: Cmax, Mean) of the same compound?
Answer: 45600 ng/mL

Question: And the Cmax ([3]; po, healthy males, 2400 mg oral, second dose, Day 3, N 11, read-out: Cmax, Median)?
Answer: 47400 ng/mL

Question: What about the half-life ([3]; po, healthy males, 2400 mg oral, second dose, Day 3, N 11, read-out: T1/2, Geometric mean (converted)) of the same compound?
Answer: 15.3 h

Question: And the half-life ([3]; po, healthy males, 2400 mg oral, second dose, Day 3, N 11, read-out: T1/2, Mean (converted))?
Answer: 15.6 h

Question: What about the half-life ([3]; po, healthy males, 2400 mg oral, second dose, Day 3, N 11, read-out: T1/2, Median (converted)) of the same compound?
Answer: 15.6 h

Question: And the Tmax ([3]; po, healthy males, 2400 mg oral, second dose, Day 3, N 11, read-out: Tmax, Median)?
Answer: 0.5 h
